Target: T1, mGluR2 (Homo sapiens, UniProt Q14416)
T1 construct: expressed in transfected cells
Experiment: reversal of [3H] LY341495 binding at mGluR2
Settings: [3H] LY341495 radioligand; cells expressing human mGluR subtypes
Method: (D. D. Schoepp, et al., Neuropharmacol., 1996, 35, 1661–1672 and 1997, 36, 111).
LY341495 binding with a Ki of less than 30,000 nM at […]. […] (LY341495 is described in Ornstein et al., J. Med. Chem., 1998, 41, 346–357 and J. Med. Chem., 1998, 41, 358 to 378).

T1 sequence (Q14416 19-872): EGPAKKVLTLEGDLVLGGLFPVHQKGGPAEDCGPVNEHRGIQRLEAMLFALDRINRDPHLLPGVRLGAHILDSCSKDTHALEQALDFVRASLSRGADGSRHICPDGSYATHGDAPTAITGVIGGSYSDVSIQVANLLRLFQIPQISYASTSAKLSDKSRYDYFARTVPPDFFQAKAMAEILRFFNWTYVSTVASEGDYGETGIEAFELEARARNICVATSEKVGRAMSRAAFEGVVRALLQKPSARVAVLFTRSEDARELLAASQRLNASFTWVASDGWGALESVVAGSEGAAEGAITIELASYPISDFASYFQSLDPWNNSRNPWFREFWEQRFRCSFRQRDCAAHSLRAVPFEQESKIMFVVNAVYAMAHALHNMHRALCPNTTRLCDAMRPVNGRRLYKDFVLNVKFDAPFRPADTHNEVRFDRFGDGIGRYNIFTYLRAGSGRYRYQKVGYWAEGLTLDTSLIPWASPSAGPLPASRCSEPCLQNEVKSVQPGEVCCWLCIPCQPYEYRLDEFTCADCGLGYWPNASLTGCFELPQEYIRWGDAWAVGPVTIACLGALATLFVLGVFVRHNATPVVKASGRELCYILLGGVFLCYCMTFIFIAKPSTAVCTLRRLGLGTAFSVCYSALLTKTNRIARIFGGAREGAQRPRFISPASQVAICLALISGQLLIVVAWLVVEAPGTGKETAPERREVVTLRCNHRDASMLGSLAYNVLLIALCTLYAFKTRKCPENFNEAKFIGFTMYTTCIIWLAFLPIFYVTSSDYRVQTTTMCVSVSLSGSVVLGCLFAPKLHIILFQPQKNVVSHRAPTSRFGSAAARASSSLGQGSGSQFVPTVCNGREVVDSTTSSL

Ki: 3.42 µM
SMILES: N[C@H](C(=O)O)[C@@H]1[C@@H](C(=O)O)[C@@H]1C(=O)NCc1ccccc1 (racemic) [Example 1, (2SR, 1′SR, 2′RS, 3′RS)-2-[2′-carboxy-3′-(phenylmethylaminocarbonyl)cyclopropyl]glycine]
